Values of other authors, collected in patent publication US20260183709A1, “GAS PURIFICATION METHOD AND GAS PURIFIER” (priority 2022, published 2026).
Where two headings read alike, the source gives them in different places.

Key:
staphylococcus aureus = details: in the air; ozone concentration 9 ppm; acting time 60 minutes
[1] = system: bacillus subtilis variant; details: in the air; ozone concentration 2.5 mg/L; acting time 1 minute
fusarium oxysporum = details: ozone concentration 15.5 ppm; acting time 20 minutes; killing rate cell shared with r37
[2] = system: bacillus subtilis variant; details: in water; ozone concentration 4.6 mg/L; acting time 3 minutes
aspergillus niger = details: ozone concentration 1.5 ppm; acting time 1 minute; 'in water' printed on the line above
pseudomonas aeruginosa = details: ozone concentration 0.08-0.6 ppm; acting time 30 minutes
[3] = system: common bacteria such as Escherichia coli, streptococcus, Pseudomonas aeruginosa, Staphylococcus aureus, and toxic bacteria; details: in 15 minutes in the ozone environment
poliovirus = details: in water; ozone concentration 0.13 ppm; acting time 3 minutes
escherichia coli phage = details: ozone concentration 0.09-0.8 ppm; acting time 3 minutes
escherichia coli [4] = details: 10° C.; ozone concentration 0.3 ppm; acting time 1 minute
penicillium citrinum = details: ozone concentration 15.4 ppm; acting time 30 minutes; killing rate cell shared with r37
penicillium = details: in the air; acting time 30 minutes; no ozone concentration printed
escherichia coli [5] = details: in the 25° C. air; ozone concentration 0.05 ppm; acting time 30 minutes
Influenza A virus = details: ozone concentration 0.5 ppm; conditions and time not printed on the line (line above: in the air, 30 minutes)
pseudomonas fluorescens = details: phosphate buffer solution; ozone introduction; acting time 15 seconds
mucor = details: acting time 30 minutes; killing rate cell shared with penicillium line; no ozone concentration printed
HAsAg = details: in water; ozone concentration 13.6 ppm; acting time 30 minutes (cells shared with line above)
F's dysentery bacillus = details: phosphate buffer solution; ozone introduction; acting time 15 seconds
Vibrio cholerae = details: phosphate buffer solution; ozone introduction; acting time 15 seconds
HBsAg = details: in the air; ozone concentration 0.3 ppm; acting time 30 minutes
human rotavirus = details: ozone concentration 0.25 ppm
penicillium nigricans = details: ozone concentration 12.5 ppm; acting time 35 minutes; killing rate cell shared with r37
Salmonella typhimurium = details: phosphate buffer solution; ozone introduction; acting time 15 seconds
staphylococcus albus = details: ozone concentration 10 ppm; acting time 3 minutes
simian rotavirus = details: ozone concentration 0.25 ppm
aspergillus versicolor = details: in the air; ozone concentration 9.6 ppm; acting time 100 minutes
cladosporium herbarum = details: ozone concentration 23 ppm; acting time 30 minutes; killing rate cell shared with r37
[6] = system: human immunodeficiency virus (HIV); details: in serum; ozone concentration 4 ppm

Compound: O=[O+][O-] [Ozone, ozone]
- Killing rate (staphylococcus aureus): 99.97%
- Killing rate [1]: 100%
- Killing rate (fusarium oxysporum): 100%
- Killing rate [2]: 100%
- Killing rate (aspergillus niger): 100%
- Killing rate (pseudomonas aeruginosa): 99.9%
- sterilization rate [3]: above 99%
- Killing rate (poliovirus): 100%
- Killing rate (drop by log values) (escherichia coli phage): drop by 7 log log values
- Killing rate (escherichia coli [4]): 100%
- Killing rate (penicillium citrinum): 100%
- Killing rate (penicillium): 93.8%
- Killing rate (escherichia coli [5]): 100%
- sterilization rate faster than chlorine (bacteria; compared with chlorine): 600-3000 times
- bactericidal ability higher than the ultraviolet rays (bacteria; compared with ultraviolet rays): 20%
- sterilization rate faster in the water than chlorine (bacteria; in the water, compared with chlorine): 600 times
- Killing rate (Influenza A virus): 100%
- Killing rate (pseudomonas fluorescens): 100%
- Killing rate (mucor): 93.8%
- Killing rate (HAsAg): 100%
- Killing rate (F's dysentery bacillus): 100%
- Killing rate (Vibrio cholerae): 100%
- Killing rate (HBsAg): 75%
- Killing rate (human rotavirus): 100%
- Killing rate (penicillium nigricans): 100%
- Killing rate (Salmonella typhimurium): 100%
- Killing rate (staphylococcus albus): 99.99%
- Killing rate (simian rotavirus): 100%
- Killing rate (aspergillus versicolor): 100%
- Killing rate (cladosporium herbarum): 100%
- Killing rate (drop by log values in titer) [6]: drop by 6 log values in titer
